Assay results taken from the supplement of paper PMC10307832.

Assays:
Experiment in all cases: relative viability (nuclei count vs DMSO), 5 days (fraction); higher = more cells survive
[1] = compound: CNC(=O)c1ccccc1Sc1ccc2c(/C=C/c3ccccn3)n[nH]c2c1 [Axitinib] + CC(C)C[C@H](NC(=O)[C@H](Cc1ccccc1)NC(=O)c1cnccn1)B(O)O [Bortezomib] (partner 0.002 µM)
Summary of the method: (§1)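 Lung cancer cell lines in 1536-well plates got either a single drug or a fixed anchor-drug dose together with five library-drug doses (not always all listed) in √10 steps, by pin tool, on the day after seeding. Nuclei were counted after 5 days, and relative viability is the treated-to-vehicle ratio of nuclei counts. Values are medians of duplicate plates.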

[2] = compound: CC1=CC=C(C=C1)C(=O)CN2C3=C(CCCC3)SC2=N [Pifithrin_alpha] + CS(=O)(=O)CCNCc1ccc(-c2ccc3ncnc(Nc4ccc(OCc5cccc(F)c5)c(Cl)c4)c3c2)o1 [Lapatinib] (partner 2 µM)
Summary of the method: as §1

[3] = compound: CNC(=O)c1ccccc1Sc1ccc2c(/C=C/c3ccccn3)n[nH]c2c1 [Axitinib] + C[C@]1(O)C[C@@H](c2nc(-c3ccc4ccc(-c5ccccc5)nc4c3)c3c(N)nccn32)C1 [Linsitinib] (partner 1 µM)
Summary of the method: as §1

[4] = compound: CC1=CC=C(C=C1)C(=O)CN2C3=C(CCCC3)SC2=N [Pifithrin_alpha] + CC1(C)CCC(c2ccc(Cl)cc2)=C(CN2CCN(c3ccc(C(=O)NS(=O)(=O)c4ccc(N[C@H](CCN5CCOCC5)CSc5ccccc5)c(S(=O)(=O)C(F)(F)F)c4)cc3)CC2)C1 [Navitoclax] (partner 0.5 µM)
Summary of the method: as §1

| Cell Line | relative viability ([1]; first compound 0.005 µM) | relative viability ([1]; first compound 0.01581 µM) | relative viability ([1]; first compound 0.05 µM) | relative viability ([1]; first compound 0.1581 µM) | relative viability ([1]; first compound 0.5 µM) | relative viability ([2]; first compound 1 µM) | relative viability ([2]; first compound 3.162 µM) | relative viability ([2]; first compound 10 µM) | relative viability ([2]; first compound 31.62 µM) | relative viability ([2]; first compound 100 µM) | relative viability ([3]; first compound 0.005 µM) | relative viability ([3]; first compound 0.01581 µM) | relative viability ([3]; first compound 0.05 µM) | relative viability ([3]; first compound 0.1581 µM) | relative viability ([3]; first compound 0.5 µM) | relative viability ([4]; first compound 1 µM) | relative viability ([4]; first compound 3.162 µM) | relative viability ([4]; first compound 10 µM) | relative viability ([4]; first compound 31.62 µM) | relative viability ([4]; first compound 100 µM) |
| --- | --- | --- | --- | --- | --- | --- | --- | --- | --- | --- | --- | --- | --- | --- | --- | --- | --- | --- | --- | --- |
| NCI-H1563 | 0.908 | 0.827 | 0.846 | 0.876 | 0.763 | 0.623 | 0.863 | 0.931 | 0.769 | 1.01 | 1.23 | 1.11 | 1.12 | 0.99 | 1.22 |  |  |  |  |  |
| EMC-BAC-2 | 1.13 | 1.04 | 1.09 | 1.13 | 1.07 | 0.87 | 0.905 | 0.864 | 0.623 | 0.928 | 0.874 | 0.781 | 0.813 | 0.782 | 0.837 | 1.22 | 1.29 | 1.17 | 0.933 | 1.31 |
| NCI-H596 | 0.859 | 0.887 | 1.08 | 1.11 | 0.995 | 0.9 | 0.934 | 1.02 | 0.915 | 1.07 | 1.15 | 1.1 | 1.24 | 1.16 | 1.03 | 0.844 | 0.891 | 0.9 | 0.88 | 1.13 |
| NCI-H2009 | 1.1 | 1.11 | 1.04 | 1.04 | 1.16 | 0.368 | 0.906 | 0.847 | 0.457 | 0.813 | 1.23 | 1.18 | 1.21 | 1.28 | 1.36 | 1.24 | 1.1 | 1.05 | 0.784 | 0.957 |
| HOP-62 | 1.02 | 0.776 | 0.668 | 0.891 | 1.21 | 0.886 | 1.21 | 0.991 | 0.714 | 1.23 | 0.961 | 0.977 | 0.777 | 0.894 | 1.06 | 0.908 | 1.09 | 1.06 | 0.751 | 1.07 |
| NCI-H2126 | 1.15 | 1.05 | 1.07 | 1.04 | 1.11 | 0.614 | 0.643 | 0.68 | 0.536 | 0.658 | 0.696 | 0.724 | 0.728 | 0.667 | 0.676 | 0.787 | 0.8 | 0.73 | 0.738 | 0.771 |
| HCC-15 | 1.08 | 0.995 | 1.01 | 0.988 | 1.06 | 0.636 | 1.05 | 0.734 | 0.666 | 0.845 | 0.959 | 0.879 | 0.88 | 0.838 | 0.895 | 0.681 | 0.697 | 0.524 | 0.441 | 0.525 |
| NCI-H23 | 1.06 | 1.09 | 1 | 1.03 | 1.02 | 1.26 | 1.13 | 1 | 0.682 | 0.839 | 0.66 | 0.618 | 0.653 | 0.587 | 0.721 | 0.797 | 0.857 | 0.889 | 0.736 | 0.729 |
| LCLC-97TM1 | 0.732 | 0.419 | 0.585 | 0.515 | 0.736 |  | 1.17 | 0.79 |  | 1.38 | 0.187 | 0.226 | 0.199 | 0.179 | 0.186 |  | 0.548 | 0.513 |  | 0.425 |
| SW 1573 | 1.19 | 1.05 | 0.944 | 0.923 | 0.994 | 1.1 | 1.14 | 1.02 | 0.798 | 0.81 | 0.911 | 0.855 | 0.899 | 0.8 | 0.84 | 1.06 | 1.03 | 1.18 | 0.923 | 0.893 |
| EKVX | 1.13 | 1.08 | 0.98 | 1.03 | 0.997 | 0.167 | 0.16 | 0.139 | 0.181 | 0.14 | 1.04 | 0.849 | 0.946 | 0.997 | 1.08 | 0.936 | 0.886 | 0.738 | 0.645 | 0.595 |
| HCC-44 | 0.925 | 0.859 | 0.855 | 0.89 | 1.01 | 0.932 | 0.965 | 0.791 | 0.641 | 0.763 | 0.756 | 0.699 | 0.746 | 0.692 | 0.733 | 0.8 | 0.899 | 0.795 | 0.701 | 0.801 |
| NCI-H1651 | 0.926 | 0.942 | 0.934 | 0.889 | 0.857 | 0.633 | 0.763 | 0.865 | 0.537 | 0.741 | 1.08 | 0.895 | 0.914 | 0.964 | 1.23 | 1.05 | 1.06 | 0.924 | 0.604 | 0.865 |
| COR-L23 | 1.05 | 1.04 | 0.943 | 0.959 | 1.2 | 1.05 | 1.28 | 1.06 |  | 0.926 | 0.899 | 0.944 | 1.01 | 0.968 | 1.11 | 1.09 | 1.09 | 0.974 |  | 1.19 |
